The record followed here is patent US11352339B2 (MISSION THERAPEUTICS LIMITED, priority 2016, dated 2022).

Each structure is given as a SMILES string.

Sequence of USP30 (Q70CQ3 57-517): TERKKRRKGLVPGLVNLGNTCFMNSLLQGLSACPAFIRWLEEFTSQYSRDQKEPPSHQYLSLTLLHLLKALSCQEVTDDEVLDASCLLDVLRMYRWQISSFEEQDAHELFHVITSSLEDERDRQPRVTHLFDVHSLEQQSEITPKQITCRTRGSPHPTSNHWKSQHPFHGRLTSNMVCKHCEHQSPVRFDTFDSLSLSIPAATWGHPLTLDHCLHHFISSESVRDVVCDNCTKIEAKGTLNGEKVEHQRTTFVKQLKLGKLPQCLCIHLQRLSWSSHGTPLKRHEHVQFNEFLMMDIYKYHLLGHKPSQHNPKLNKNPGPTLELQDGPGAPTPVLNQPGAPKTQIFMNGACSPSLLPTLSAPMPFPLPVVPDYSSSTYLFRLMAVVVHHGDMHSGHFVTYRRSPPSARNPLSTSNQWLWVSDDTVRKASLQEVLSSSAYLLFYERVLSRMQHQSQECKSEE

The test deals with USP30 (Homo sapiens (Human), UniProt Q70CQ3). The experiment in a line: USP30 Biochemical IC50 Assay. The settings on record: fluorescence polarisation, TAMRA labelled peptide linked to ubiquitin; 30 min pre-incubation, read after 2 h; read-out: IC50 range. The method in brief:
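Fluorescence polarisation cleavage assay, duplicate wells: substrate is a TAMRA peptide joined to ubiquitin by an iso-peptide bond (50 nM), added after 30 min room-temperature compound–enzyme incubation. Readings at 540/590 nm immediately and at 2 h.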
(Polarisation of emitted light reports the rotation of a fluorescent probe.)
As usually defined, the IC50 is the midpoint of a concentration-inhibition curve. With `N#CN1CCC[C@H]1c1nc2cc(-c3cccc(OC(F)(F)F)c3)ccc2o1` [Example 133, (S)-2-(5-(3-(Trifluoromethoxy)phenyl)-benzo[d]oxazol-2-yl)pyrrolidine-1-carbonitrile], the half-maximal inhibitory concentration (IC50) lay within 100 to 1000 nM.

Take `Cc1n[nH]c2cc(-c3ccc4oc([C@@H]5CCCN5C#N)nc4c3)ccc12` [Example 134, (S)-2-(5-(3-Methyl-1H-indazol-6-yl)-benzo[d]oxazol-2-yl)pyrrolidine-1-carbonitrile]: the half-inhibitory concentration (IC50) fell in the range of 1000 to 10000 nM. Next, `Cn1ncc2cc(-c3ccc4oc([C@@H]5CCCN5C#N)nc4c3)ccc21` [Example 135, (S)-2-(5-(1-Methyl-1H-indazol-5-yl)-benzo[d]oxazol-2-yl)pyrrolidine-1-carbonitrile]: 1000 to 10000 nM.

Consider `N#CN1CCC[C@H]1c1nc2cc(-c3cccc([N+](=O)[O-])c3)ccc2o1` [Example 136, (S)-2-(5-(3-Nitrophenyl)benzo[d]oxazol-2-yl)pyrrolidine-1-carbonitrile], for which the concentration for half-maximal inhibition (IC50) lay within 100 to 1000 nM. Next, `N#Cc1cccc(-c2ccc3oc([C@@H]4CCCN4C#N)nc3c2)c1F` [Example 137, (S)-2-(5-(3-Cyano-2-fluorophenyl)-benzo[d]oxazol-2-yl)pyrrolidine-1-carbonitrile]: 1000 to 10000 nM; `N#Cc1cc(F)cc(-c2ccc3oc([C@@H]4CCCN4C#N)nc3c2)c1` [Example 138, (S)-2-(5-(3-Cyano-5-fluorophenyl)-benzo[d]oxazol-2-yl)pyrrolidine-1-carbonitrile]: 100 to 1000 nM. Next, `Cc1ccc(S(=O)(=O)NCc2ccccc2)cc1-c1ccc2oc([C@@H]3CCCN3C#N)nc2c1` [Example 139, (S)-N-Benzyl-3-(2-(1-cyanopyrrolidin-2-yl)-benzo[d]oxazol-5-yl)-4-methyl-benzenesulfonamide]: 1000 to 10000 nM; `N#CN1CCCC1c1nnc(-c2cccc(-c3ccccc3)c2)o1` (stereo not drawn) [Example 140, 2-(5-([1,1′-Biphenyl]-3-yl)-1,3,4-oxadiazol-2-yl)pyrrolidine-1-carbonitrile]: 1000 to 10000 nM; `N#CN1CCC[C@H]1c1nc(-c2cccc(-c3ccccc3)c2)no1` [Example 141, (S)-2-(3-([1,1′-Biphenyl]-3-yl)-1,2,4-oxadiazol-5-yl)pyrrolidine-1-carbonitrile]: 100 to 1000 nM. As for `N#CN1CCCC1c1noc(-c2cccc(-c3ccccc3)n2)n1` (stereo not drawn) [Example 142, 2-(5-(6-Phenylpyridin-2-yl)-1,2,4-oxadiazol-3-yl)pyrrolidine-1-carbonitrile], the IC50 was 1000 to 10000 nM. Next, `Cn1nccc1-c1cccc(-c2nc(C3CCCN3C#N)no2)c1` (stereo not drawn) [Example 143, 2-(5-(3-(1-Methyl-1H-pyrazol-5-yl)phenyl)-1,2,4-oxadiazol-3-yl)pyrrolidine-1-carbonitrile]: 1000 to 10000 nM; `COc1cc(-c2cccc(-c3nc(C4CCCN4C#N)no3)c2)ccn1` (stereo not drawn) [Example 144, 2-(5-(3-(2-Methoxypyridin-4-yl)phenyl)-1,2,4-oxadiazol-3-yl)pyrrolidine-1-carbonitrile]: 1000 to 10000 nM; `COc1ccc(C#N)cc1-c1cccc(-c2nc(C3CCCN3C#N)no2)c1` (stereo not drawn) [Example 146, 2-(5-(5′-Cyano-2′-methoxy-[1,1′-biphenyl]-3-yl)-1,2,4-oxadiazol-3-yl)pyrrolidine-1-carbonitrile]: 100 to 1000 nM.

Consider `Cc1noc(C)c1-c1cccc(-c2nc(C3CCCN3C#N)no2)c1` (stereo not drawn) [Example 147, 2-(5-(3-(3,5-Dimethylisoxazol-4-yl)phenyl)-1,2,4-oxadiazol-3-yl)pyrrolidine-1-carbonitrile], for which the IC50 is 1000 to 10000 nM. Consider `Cn1cc(-c2cccc(-c3nc(C4CCCN4C#N)no3)c2)cn1` (stereo not drawn) [Example 148, 2-(5-(3-(1-Methyl-1H-pyrazol-4-yl)phenyl)-1,2,4-oxadiazol-3-yl)pyrrolidine-1-carbonitrile], for which the IC50 is 1000 to 10000 nM. `N#CN1CCCC1c1noc(-c2cccc(-c3ccc(C(N)=O)cc3)c2)n1` (stereo not drawn) [Example 149, 3′-(3-(1-Cyanopyrrolidin-2-yl)-1,2,4-oxadiazol-5-yl)-[1,1′-biphenyl]-4-carboxamide]: the IC50 lay within 1000 to 10000 nM. Consider `CN(C)S(=O)(=O)c1cccc(-c2cccc(-c3nc(C4CCCN4C#N)no3)c2)c1` (stereo not drawn) [Example 150, 3′-(3-(1-Cyanopyrrolidin-2-yl)-1,2,4-oxadiazol-5-yl)-N,N-dimethyl-[1,1′-biphenyl]-3-sulfonamide], for which the concentration for half-maximal inhibition (IC50) was 1000 to 10000 nM. Next, `Cn1ncc2cc(-c3cccc(-c4nc(C5CCCN5C#N)no4)c3)ccc21` (stereo not drawn) [Example 151]: 100 to 1000 nM; `N#CN1CCCC1c1noc(-c2cccc(-c3cccnc3)c2)n1` (stereo not drawn) [Example 152, 2-(5-(3-(Pyridin-3-yl)phenyl)-1,2,4-oxadiazol-3-yl)pyrrolidine-1-carbonitrile]: 100 to 1000 nM; `CS(=O)(=O)c1ccc(-c2cccc(-c3nc(C4CCCN4C#N)no3)c2)cc1` (stereo not drawn) [Example 153, 2-(5-(4′-(Methylsulfonyl)-[1,1′-biphenyl]-3-yl)-1,2,4-oxadiazol-3-yl)pyrrolidine-1-carbonitrile]: 100 to 1000 nM. Consider `Cc1ccc(-c2cccc(-c3nc(C4CCCN4C#N)no3)c2)cn1` (stereo not drawn) [Example 154, 2-(5-(3-(6-Methylpyridin-3-yl)phenyl)-1,2,4-oxadiazol-3-yl)pyrrolidine-1-carbonitrile], for which the IC50 fell in the range of 100 to 1000 nM.

For the compound `N#Cc1ccccc1-c1cccc(-c2nc(C3CCCN3C#N)no2)c1` (stereo not drawn) [Example 155, 2-(5-(2′-Cyano-[1,1′-biphenyl]-3-yl)-1,2,4-oxadiazol-3-yl)pyrrolidine-1-carbonitrile], the half-maximal inhibitory concentration (IC50) was 100 to 1000 nM. As for `COC(=O)c1ccccc1-c1cccc(-c2nc(C3CCCN3C#N)no2)c1` (stereo not drawn) [Example 156, Methyl 3′-(3-(1-cyanopyrrolidin-2-yl)-1,2,4-oxadiazol-5-yl)-[1,1′-biphenyl]-2-carboxylate], the concentration for half-maximal inhibition (IC50) was in the range of 100 to 1000 nM. Next, `N#CN1CCCC1c1noc(-c2cccc(-c3ccc([N+](=O)[O-])cc3)c2)n1` (stereo not drawn) [Example 157, 2-(5-(4′-Nitro-[1,1′-biphenyl]-3-yl)-1,2,4-oxadiazol-3-yl)pyrrolidine-1-carbonitrile]: below 100 nM; `COc1ccc(-c2cccc(-c3nc(C4CCCN4C#N)no3)c2)cn1` (stereo not drawn) [Example 158, 2-(5-(3-(6-Methoxypyridin-3-yl)phenyl)-1,2,4-oxadiazol-3-yl)pyrrolidine-1-carbonitrile]: 1000 to 10000 nM; `N#CN1CCCC1c1noc(-c2cccc(-c3cncnc3)c2)n1` (stereo not drawn) [Example 159, 2-(5-(3-(Pyrimidin-5-yl)phenyl)-1,2,4-oxadiazol-3-yl)pyrrolidine-1-carbonitrile]: 1000 to 10000 nM. Next, `N#CN1CCCC1c1noc(-c2cccc(-c3ccoc3)c2)n1` (stereo not drawn) [Example 160, 2-(5-(3-(Furan-3-yl)phenyl)-1,2,4-oxadiazol-3-yl)pyrrolidine-1-carbonitrile]: 100 to 1000 nM; `COc1ncccc1-c1cccc(-c2nc(C3CCCN3C#N)no2)c1` (stereo not drawn) [Example 162, 2-(5-(3-(2-Methoxypyridin-3-yl)phenyl)-1,2,4-oxadiazol-3-yl)pyrrolidine-1-carbonitrile]: 100 to 1000 nM; `N#Cc1cc(F)cc(-c2cccc(-c3nc(C4CCCN4C#N)no3)c2)c1` (stereo not drawn) [Example 163, 2-(5-(3′-Cyano-5′-fluoro-[1,1′-biphenyl]-3-yl)-1,2,4-oxadiazol-3-yl)pyrrolidine-1-carbonitrile]: below 100 nM. Turning to `Cc1cncc(-c2cccc(-c3nc(C4CCCN4C#N)no3)c2)c1` (stereo not drawn) [Example 164, 2-(5-(3-(5-Methylpyridin-3-yl)phenyl)-1,2,4-oxadiazol-3-yl)pyrrolidine-1-carbonitrile], the 50% inhibitory concentration (IC50) was 1000 to 10000 nM.

Consider `Cc1cccc2cc(-c3cccc(-c4nc(C5CCCN5C#N)no4)c3)[nH]c12` (stereo not drawn) [Example 165, 2-(5-(3-(7-Methyl-1H-indo1-2-yl)phenyl)-1,2,4-oxadiazol-3-yl)pyrrolidine-1-carbonitrile], for which the half-inhibitory concentration (IC50) was 100 to 1000 nM. Next, `N#CN1CCCC1c1noc(-c2ccnc(-c3ccccc3)c2)n1` (stereo not drawn) [Example 167]: 100 to 1000 nM; `N#CN1CCCC1c1noc(-c2ccnc(-c3cccc(OC(F)(F)F)c3)c2)n1` (stereo not drawn) [Example 168, 2-(5-(2-(3-(Trifluoromethoxy)phenyl)-pyridin-4-yl)-1,2,4-oxadiazol-3-yl)pyrrolidine-1-carbonitrile]: 100 to 1000 nM; `N#CN1CCCC1c1noc(-c2ccnc(-c3ccc(OC(F)(F)F)cc3)c2)n1` (stereo not drawn) [Example 169, 2-(5-(2-(4-(Trifluoromethoxy)phenyl)-pyridin-4-yl)-1,2,4-oxadiazol-3-yl)pyrrolidine-1-carbonitrile]: 1000 to 10000 nM. Next, `N#CN1CCCC1c1noc(-c2ccnc(-c3cccc(C(N)=O)c3)c2)n1` (stereo not drawn) [Example 170, 3-(4-(3-(1-Cyanopyrrolidin-2-yl)-1,2,4-oxadiazol-5-yl)pyridin-2-yl)benzamide]: 1000 to 10000 nM; `CNC(=O)c1cccc(-c2cc(-c3nc(C4CCCN4C#N)no3)ccn2)c1` (stereo not drawn) [Example 171, 3-(4-(3-(1-Cyanopyrrolidin-2-yl)-1,2,4-oxadiazol-5-yl)pyridin-2-yl)-N-methylbenzamide]: 1000 to 10000 nM; `N#Cc1cccc(-c2ccnc(-c3nc(C4CCCN4C#N)no3)c2)c1` (stereo not drawn) [Example 172, 2-(5-(4-(3-Cyanophenyl)pyridin-2-yl)-1,2,4-oxadiazol-3-yl)pyrrolidine-1-carbonitrile]: 100 to 1000 nM. In the case of `N#Cc1ccc(-c2cccc(-c3nc([C@@H]4CCCN4C#N)no3)c2)cc1` [Example 174, (S)-2-(5-(4′-Cyano-[1,1′-biphenyl]-3-yl)-1,2,4-oxadiazol-3-yl)pyrrolidine-1-carbonitrile], the IC50 was below 100 nM. Consider `N#Cc1ccc(-c2cccc(-c3nc([C@@H]4CCCN4C#N)no3)n2)cc1` [Example 175, (S)-2-(5-(6-(4-Cyanophenyl)pyridin-2-yl)-1,2,4-oxadiazol-3-yl)pyrrolidine-1-carbonitrile], for which the IC50 is below 100 nM.
